Laboratory results from US20090069419A1, “MASKED CARBOXYLATE NEOPENTYL SULFONYL ESTER CYCLIZATION RELEASE PRODRUGS OF ACAMPROSATE, COMPOSITIONS THEREOF, AND METHODS OF USE” (priority 2007, published 2009).

Experiments:
[1] = doses of about 1-2 gm per day, cited from earlier work
[2] = cited from earlier work
cocaine conditioned mice = settings: 100 mg/kg for 3 days; cited from earlier work

| Structure (SMILES) | steady-state plasma concentration [1] | time at which steady-state plasma concentration occurs ([1]; post-dose) | mean elimination half-life ([2]; following intravenous infusion (15 min)) | oral bioavailability ([2]; humans, oral) | relapse-like behavior (cocaine conditioned mice) | melting point |
| --- | --- | --- | --- | --- | --- | --- |
| CC(=O)NCCCS(=O)(=O)O [acamprosate, 3-(Acetylamino)propylsulfonic acid] | 370 to 640 ng/mL | 3 to 8 h | 3.2 ± 0.2 h | about 11% | attenuated relapse-like behavior | – |
| CC(=O)NCCCS(=O)(=O)OCC(C)(C)CCC(=O)O [Compound 28, 5-{[3-(Acetylamino)propyl]sulfonyloxy}-4,4-dimethylpentanoic Acid] | – | – | – | – | – | 105.3 to 124.9 °C |
